Active and inactive are the calls of the source. The rule behind the calls is not given here.
Assays:
[1] = system: Rattus norvegicus; assay: Narcotic analgesic activity in sc dosed rat assessed as inhibition of phenazocine-induced effect by D'Amour-Smith tail flick test; type: functional
[2] = system: Mus musculus; assay: Antiwrithing activity in sc dosed mouse assessed as prevention of acetylcholine-induced abdominal constriction response; type: functional; settings: Abdomen
[3] = system: Rattus norvegicus; assay: Narcotic analgesic activity in po dosed rat assessed as inhibition of phenazocine-induced effect by D'Amour-Smith tail flick test; type: functional
[4] = system: Mus musculus; assay: Antiwrithing activity in mouse assessed as prevention of acetylcholine-induced abdominal constriction response at 100 mg/kg, sc; type: functional, Abdomen; settings: route subcutaneous
[5] = system: Mus musculus; assay: Antiwrithing activity in mouse assessed as prevention of acetylcholine-induced abdominal constriction response at 25 mg/kg, sc; type: functional, Abdomen; settings: route subcutaneous
[6] = system: Mus musculus; assay: Induction of depression in mouse at 75 mg/kg, sc; type: organism-based; set-up: dose 75 mg/kg, route subcutaneous; settings: in vivo
[7] = system: Mus musculus; assay: Antiwrithing activity in sc dosed mouse assessed as prevention of phenyl-p-benzoquinone-induced abdominal constriction response; type: functional; settings: Abdomen
[8] = system: Rattus norvegicus; assay: Induction of tremors in rat at 120 mg/kg, sc; type: organism-based; set-up: dose 120 mg/kg, route subcutaneous; settings: in vivo
[9] = system: Mus musculus; assay: Induction of sedation in mouse at 40 mg/kg, sc; type: organism-based; set-up: dose 40 mg/kg, route subcutaneous; settings: in vivo
[10] = system: Mus musculus; assay: Antiwrithing activity in po dosed mouse assessed as prevention of acetylcholine-induced abdominal constriction response; type: functional; settings: Abdomen
[11] = system: Mus musculus; assay: Antiwrithing activity in po dosed mouse assessed as prevention of phenyl-p-benzoquinone-induced abdominal constriction response; type: functional; settings: Abdomen
[12] = system: Rattus norvegicus; assay: Narcotic analgesic activity in sc dosed rat assessed as inhibition of morphine-induced effect by D'Amour-Smith tail flick test; type: functional, organism-based
[13] = system: Rattus norvegicus; assay: Narcotic analgesic activity in po dosed rat assessed as inhibition of morphine-induced effect by D'Amour-Smith tail flick test; type: functional, organism-based
[14] = system: Rattus norvegicus; assay: Narcotic analgesic activity in sc dosed rat assessed as inhibition of meperidine-induced effect by D'Amour-Smith tail flick test; type: functional, organism-based
[15] = system: Rattus norvegicus; assay: Narcotic analgesic activity in po dosed rat assessed as inhibition of meperidine-induced effect by D'Amour-Smith tail flick test; type: functional, organism-based
[16] = system: Rattus norvegicus; assay: Analgesic activity in rat assessed as inhibition of intraarterial bradykinin-induced effect up to 100 mg/kg, sc; type: functional
[17] = system: Mus musculus; assay: Induction of hyperexcitable in mouse at 100 mg/kg, sc; type: organism-based; set-up: dose 100 mg/kg, route subcutaneous; settings: in vivo
[18] = system: Rattus norvegicus; assay: Induction of convulsion in rat at 120 mg/kg, sc; type: organism-based; set-up: dose 120 mg/kg, route subcutaneous; settings: in vivo
[19] = system: Rattus norvegicus; assay: Induction of hyperactiveness in rat at 200 mg/kg, po; type: organism-based; set-up: dose 200 mg/kg, route oral; settings: in vivo
[20] = system: Rattus norvegicus; assay: Induction of depression in rat at 75 mg/kg, sc; type: organism-based; set-up: dose 75 mg/kg, route subcutaneous; settings: in vivo
[21] = system: Mus musculus; assay: Analgesic activity in mouse assessed as inhibition of intraarterial bradykinin-induced effect at 50 mg/kg, sc; type: functional, organism-based; set-up: dose 50 mg/kg
[22] = system: Mus musculus; assay: Antiwrithing activity in mouse assessed as prevention of acetylcholine-induced abdominal constriction response at 15 mg/kg, sc; type: functional, Abdomen; settings: route subcutaneous
[23] = system: Mus musculus; assay: Toxicity in mouse assessed as mortality at >15 mg/kg, sc; type: organism-based; settings: in vivo
[24] = system: Mus musculus; assay: Induction of convulsion in mouse at 75 mg/kg, sc; type: organism-based; set-up: dose 75 mg/kg, route subcutaneous; settings: in vivo
[25] = system: Mus musculus; assay: Induction of hyperactiveness in mouse at 30 mg/kg, sc; type: organism-based; set-up: dose 30 mg/kg, route subcutaneous; settings: in vivo

COC(=O)[C@H]1C[C@H]2CC[C@H]([C@H]1c1ccccc1)N2C
AD50 [1]: >80 mg/kg

COC(=O)[C@H]1C[C@H]2CC[C@@H]([C@H]1c1ccccc1)N2C
AD50 [1]: 3.3 mg/kg

COC(=O)[C@H]1C[C@H]2CC[C@@H](N2)[C@H]1c1cccc(O)c1
ED50 [2]: 60 mg/kg | AD50 [1]: >80 mg/kg

COC(=O)[C@H]1C[C@H]2CC[C@H](N2)[C@H]1c1cccc(O)c1
ED50 [2]: 60 mg/kg | AD50 [1]: 0.3 mg/kg | AD50 [3]: 14 mg/kg

COC(=O)[C@H]1C[C@H]2CC[C@@H]3[C@H]1c1cc(O)ccc1CN23
AD50 [1]: 1.45 mg/kg | Activity [4]: 100% | Activity [5]: 0% | Activity [6]: Toxic

COC(=O)[C@H]1C[C@H]2CC[C@@H]3[C@H]1c1cccc(O)c1CN23
AD50 [1]: 2 mg/kg

COC(=O)[C@@H]1C[C@H]2CCC([C@H]1c1ccccc1)N2C (mixture of isomers)
ED50 [2]: 12 mg/kg | ED50 [7]: 17 mg/kg | AD50 [1]: >80 mg/kg | Activity [8]: Toxic | Activity [9]: Toxic

COC(=O)[C@H]1C[C@H]2CCC([C@H]1c1ccccc1)N2C (mixture of isomers)
ED50 [2]: 12 mg/kg | ED50 [10]: 16 mg/kg | ED50 [7]: 43 mg/kg | ED50 [11]: > 200 mg/kg | AD50 [1]: 5.5 mg/kg | AD50 [3]: 1.1 mg/kg | Activity [12]: inactive | Activity [13]: inactive | Activity [14]: inactive | Activity [15]: inactive | Activity [16]: inactive | Activity [9]: Toxic | Activity [17]: Toxic | Activity [18]: Toxic

COC(=O)[C@H]1C[C@H]2CCC(N2)[C@H]1c1cccc(O)c1 (mixture of isomers)
AD50 [1]: 2 mg/kg

COC(=O)C1C[C@H]2CC[C@H]([C@H]1c1cccs1)N2C (mixture of isomers)
ED50 [2]: 13 mg/kg | ED50 [7]: 60 mg/kg | AD50 [1]: 4.9 mg/kg | Activity [6]: Toxic

COC(=O)[C@H]1C[C@H]2CC[C@H]([C@H]1c1ccc[nH]1)N2C (racemic)
ED50 [10]: 34 mg/kg | AD50 [1]: >80 mg/kg | Activity [19]: Toxic

COC(=O)[C@@H]1C[C@H]2CC[C@H]([C@H]1c1ccccc1)N2Cc1ccccc1 (racemic)
ED50 [2]: > 75 mg/kg | ED50 [10]: 21 mg/kg | AD50 [1]: >80 mg/kg

COC(=O)[C@H]1C[C@H]2CC[C@@H](N2)[C@H]1c1ccccc1 (racemic)
ED50 [2]: 3.4 mg/kg | ED50 [10]: 8.4 mg/kg | ED50 [7]: 22 mg/kg | ED50 [11]: 100 mg/kg | AD50 [1]: 2.1 mg/kg | AD50 [3]: 4.1 mg/kg | Activity [8]: Toxic | Activity [20]: Toxic | Activity [21]: Active

COC(=O)[C@H]1C[C@H]2CC[C@H]([C@H]1c1ccccc1)N2CC1CC1 (racemic)
ED50 [2]: 10 mg/kg | AD50 [1]: 10 mg/kg | Activity [22]: 67% | Activity [23]: Toxic | Activity [24]: Toxic | Activity [25]: Toxic

CN1[C@@H]2CC[C@@H]1[C@@H](c1ccccc1)[C@@H](C(=O)O)C2 (racemic)
AD50 [1]: >80 mg/kg

CC(C)OC(=O)[C@H]1C[C@H]2CC[C@H]([C@H]1c1ccccc1)N2C (racemic)
ED50 [2]: 16 mg/kg | AD50 [1]: >80 mg/kg | Activity [18]: Toxic | Activity [25]: Toxic

Reference: ChEMBL document CHEMBL3272190, “(2-exo-3-endo)-2-Aryltropane-3-carboxylic esters, a new class of narcotic antagonists” (J Med Chem, 1978)
